Earlier results, collected in PMC6311893, “Computational prediction of plasma protein binding of cyclic peptides from small molecule experimental data using sparse modeling techniques” (BMC Bioinformatics, 2018).
Where two headings read alike, the source gives them in different places.

Test system: plasma protein
Settings: cited from earlier work
[1] = fraction bound to plasma protein, small molecule dataset, sheet 1-SM, ref Ingle et al.
[2] = fraction bound to plasma protein, small molecule dataset, sheet 1-SM (Set Dte = test, Dtr = training), ref Ingle et al.
[3] = fraction bound to plasma protein, small molecule dataset, sheet 1-SM, Set Dtr, ref Ingle et al.

SMILES | PPB (fb) [1] | PPB (fb) [2] | also measured
CC(C)Cc1ccc(C(C)C(=O)NCCCN2CCCC2)cc1 (stereo not drawn) [JMC_06] | 0.85 |  | 
CN1CCC(=C2c3ccccc3CCc3cccnc32)CC1 [azatadine] |  | 0.1 | 
CN1C(=O)CC(C)(c2ccccc2)C1=O (stereo not drawn) [mesuximide] | 0 |  | 
CC1(C)SC2C(NC(=O)COc3ccccc3F)C(=O)N2C1C(=O)O (stereo not drawn) [penicillin52] | 0.91 |  | 
C=C1CC[C@H](O)C/C1=C/C=C1\CCC[C@]2(C)[C@@H]([C@H](C)CCCC(C)(C)O)CC[C@@H]12 [calcifediol] |  | 0.8 | 
CCOc1nc2cccc(C(=O)O)c2n1Cc1ccc(-c2ccccc2-c2nnn[nH]2)cc1 [candesartan] |  | 0.99 | 
C[C@H](Cn1cnc2c(N)ncnc21)OCP(=O)(O)O [Tenofovir] |  | 0.07 | 
O=C(C1CCCCC1)N1CC(=O)N2CCc3ccccc3C2C1 (stereo not drawn) [praziquantel] | 0.83 |  | 
CC1(C)SC2C(NC(=O)Cc3cccs3)C(=O)N2C1C(=O)O (stereo not drawn) [penicillin71] |  |  | PPB (fb) (plasma): 0.58
Cc1ccc(C(=O)c2ccc(CC(=O)O)n2C)cc1 [tolmetin] |  |  | PPB (fb) [3]: 0.99
CC(=O)c1ccc(S(=O)(=O)NC(=O)NC2CCCCC2)cc1 [acetohexamide] |  | 0.96 | 
N=C(N)NC(=O)c1nc(Cl)c(N)nc1N [amiloride] |  | 0.4 | 
CCN(CC)CCOC(=O)c1ccc(N)cc1 [procaine] | 0.06 |  | 
O=C(c1ccccc1)c1ccc2n1CCC2C(=O)O (stereo not drawn) [Ketorolac] |  |  | PPB (fb) [3]: 0.99
CCOc1ccc2ccccc2c1C(=O)N[C@@H]1C(=O)N2[C@@H]1SC(C)(C)[C@@H]2C(=O)O [Nafcillin] |  | 0.88 | 
CC(Cc1ccccc1)NCCC(c1ccccc1)c1ccccc1 (stereo not drawn) [prenylamine] | 0.97 |  | 
Nc1ccc(S(=O)(=O)Nc2nccs2)cc1 [sulfathiazole] | 0.67 |  | 

SMILES | PPB (fb) [1] | PPB (fb) [2] | also measured
CC1=NS(=O)(=O)c2cc(Cl)ccc2N1 [Diazoxide] |  |  | PPB (fb) [3]: 0.92
CC(=O)Oc1ccc2c3c1OC1C(OC(C)=O)C=CC4C(C2)N(C)CCC341 (stereo not drawn) [diamorphine] |  |  | PPB (fb) (plasma): 0
COc1ccc2c3c1O[C@H]1C(=O)CC[C@@]4(O)[C@@H](C2)N(C)CC[C@]314 [Oxycodone] |  |  | PPB (fb) (plasma): 0.45
Cc1[nH]c(=O)c(C#N)cc1-c1ccncc1 [Milrinone] |  |  | PPB (fb) [3]: 0.85
CC(=O)[C@H]1CC[C@H]2[C@@H]3CCC4=CC(=O)CC[C@]4(C)[C@H]3CC[C@]12C [progesterone] |  | 0.97 | 
Clc1ccc(COC(Cn2ccnc2)c2ccc(Cl)cc2Cl)c(Cl)c1 (stereo not drawn) [miconazole] |  | 0.95 | 
COc1cc(Cc2cnc(N)nc2N)cc(OC)c1OC [Trimethoprim] | 0.46 |  | 
COc1nc(C)nc(Cl)c1N=C1NCCN1 [Moxonidine] |  |  | PPB (fb) [3]: 0.06
Nc1ncnc2c1ncn2CCOCP(=O)(O)O [Adefovir] |  |  | PPB (fb) [3]: 0.04
C[C@@H]1C[C@H]2[C@@H]3C[C@H](F)C4=CC(=O)C=C[C@]4(C)[C@H]3[C@@H](O)C[C@]2(C)[C@H]1C(=O)CO [fluocortolone] | 0.9 |  | 
C=C(CC(=O)c1ccc(-c2ccccc2Cl)cc1)C(=O)O [Itanoxone] | 0.98 |  | 
Nc1n[n+]([O-])c2ccccc2[n+]1[O-] [Tirapazamine] | 0.19 |  | 
CNC[C@H](O)c1ccc(O)c(O)c1 [epinephrine] | 0.5 |  | 
O=C(O[C@@H]1C[C@@H]2C[C@H]3C[C@H](C1)N2CC3=O)c1c[nH]c2ccccc12 [dolasetron] |  | 0.7 | 
COc1cc(CCN)cc(OC)c1OC [mescaline] |  |  | PPB (fb) (plasma): 0.15
COc1ccc(-n2cc(C(=O)O)c(=O)c3cc(F)c(N4CCNCC4)cc32)cc1 [5c(p-OCH3)] |  | 0.31 | 
